These results are taken from US12404289B2 (Gilead Sciences, Inc., priority 2020, dated 2025).

Assay type in all cases: cell-based
Test [1] deals with Recombinant respiratory syncytial virus expressing the firefly luciferase protein (RSV-Fluc). In words: microbe, parasite or virus in culture. To be noted: Table 4.
Test [2] deals with Respiratory syncytial virus (RSV) strain A2. Put plainly: Hep-2 RSV2 384-well assay (EC50-HEP2-384). To be noted: HEp-2 cells, RSV A2, MOI=4, 4 days.
The subject of another test is SARS-CoV-2. Put plainly: SARS-CoV-2 antiviral assay (A549-hACE2, Nano luciferase). The settings on record: A549-hACE2 cells, SARS-CoV2-Nano, MOI 0.025, 48 h, Table 4, read-out: EC50 SARS CoV2.
Test [3] relates to Respiratory syncytial virus (RSV) strain A2. Put plainly: RSV antiviral assay (HEp-2, 96 well). The settings on record: Table 3.
For test [4], the system named is Respiratory syncytial virus recombinant with luciferase (RSV-Luc5). Put plainly: microbe, parasite or virus in culture. The settings on record: human respiratory syncytial virus, HEp-2, 72 h, read-out: EC50 RSVFluc-Hep2 384, HEp-2 cells, RSV-Luc5, MOI=0.5, 3 days, 384 well; Table 3.
The mark [5] stands for this setting: human respiratory syncytial virus, NHBE, 72 h, read-out: EC50 RSVFluc NHBE 96, NHBE cells, RSV-Fluc, MOI of 0.1, three days, 96 well.
[6] abbreviates: Severe acute respiratory syndrome coronavirus 2, 48 h.
Setting [7] is: read-out: EC50 RSVFluc NHBE 96, NHBE cells, RSV-Fluc, MOI of 0.1, three days, 96 well.
Setting [8] is: human respiratory syncytial virus, HEp-2, 96 h, Table 3.
[9] abbreviates: human respiratory syncytial virus, HEp-2, 96 h, read-out: EC50 RSV HEP2 96, HEp-2 cells, RSV A2, MOI=4, 4 days, 96 well.

Read-outs that look alike come from different tables or passages of the source.

Turning to `CCOC(=O)[C@H](C)NP(=O)(OC[C@H]1O[C@@](C#N)(c2ccc3c(N)ncnn23)[C@H](OC(=O)C(C)C)[C@@H]1OC(=O)C(C)C)Oc1ccc(C(C)(C)C)cc1` (single isomer, unassigned) [Example 18a], the EC50 in test [1] (setting [5]) was 0.0222 µM; in test [2] (human respiratory syncytial virus, HEp-2, 96 h, Table 1) it was 0.0654 µM; in the test on SARS-CoV-2 (setting [6]) it was 0.312 µM.
Take `CCOC(=O)[C@H](C)NP(=O)(OC[C@H]1O[C@@](C#N)(c2ccc3c(N)ncnn23)[C@H](OC(=O)C(C)C)[C@@H]1OC(=O)C(C)C)Oc1ccc(C(C)(C)C)cc1` (single isomer, unassigned) [Example 18b]: the EC50 came to 0.0151 µM in test [1] (setting [7]), 0.075 µM in test [2] (Table 1) and 0.332 µM in the test on SARS-CoV-2.
The corresponding values for `CC(C)C(=O)O[C@H]1[C@@H](OC(=O)C(C)C)[C@](C#N)(c2ccc3c(N)ncnn23)O[C@@H]1COP(=O)(N[C@@H](C)C(=O)OC1CCC1)Oc1ccccc1` (single isomer, unassigned) [Example 21a] are 0.0374 µM, 0.092 µM and 0.125 µM.
With `CC(C)C(=O)O[C@H]1[C@@H](OC(=O)C(C)C)[C@](C#N)(c2ccc3c(N)ncnn23)O[C@@H]1COP(=O)(N[C@@H](C)C(=O)OC1CCC1)Oc1ccccc1` (single isomer, unassigned) [Example 21b], the EC50 in test [1] (setting [7]) stood at 0.0331 µM; in test [2] (Table 1), 0.0347 µM; in the test on SARS-CoV-2, 0.191 µM.
Turning to `C[C@H](NP(=O)(OC[C@H]1O[C@@](C#N)(c2ccc3c(N)ncnn23)[C@H](O)[C@@H]1O)Oc1ccc(C(C)(C)C)cc1)C(=O)OC1CCC1` (single isomer, unassigned) [Example 31a], the figures for the EC50 (in test [1] (setting [5]); in test [2] (setting [8]); in the test with SARS-CoV-2 (setting [6])) were 0.00633 µM, 0.0292 µM and 0.0923 µM, respectively.
As to `CCC(=O)O[C@H]1[C@@H](OC(=O)CC)[C@](C#N)(c2ccc3c(N)ncnn23)O[C@@H]1COP(=O)(N[C@@H](C)C(=O)OC1CCC1)Oc1ccc(C(C)(C)C)cc1` (single isomer, unassigned) [Example 32a], the EC50 in test [1] (setting [5]) worked out at 0.0167 µM; in test [2] (setting [8]), 0.0254 µM; in the test with SARS-CoV-2, 0.157 µM.
Take `CCC(=O)O[C@H]1[C@@H](OC(=O)CC)[C@](C#N)(c2ccc3c(N)ncnn23)O[C@@H]1COP(=O)(N[C@@H](C)C(=O)OC1CCC1)Oc1ccc(C(C)(C)C)cc1` (single isomer, unassigned) [Example 32b]: the EC50 amounted to 0.0107 µM in test [1] (setting [7]), 0.03 µM in test [2] (Table 3) and 0.0597 µM with SARS-CoV-2.
For the compound `CC(=O)O[C@H]1[C@@H](OC(C)=O)[C@](C#N)(c2ccc3c(N)ncnn23)O[C@@H]1COP(=O)(N[C@@H](C)C(=O)OC1CCC1)Oc1ccc(C(C)(C)C)cc1` (single isomer, unassigned) [Example 33a], the results for the EC50 (in test [1] (setting [5]); in test [2] (setting [8]); in the test on SARS-CoV-2 (setting [6])) were 0.00906 µM, 0.0227 µM and 0.134 µM, respectively.
As to `CC(=O)O[C@H]1[C@@H](OC(C)=O)[C@](C#N)(c2ccc3c(N)ncnn23)O[C@@H]1COP(=O)(N[C@@H](C)C(=O)OC1CCC1)Oc1ccc(C(C)(C)C)cc1` (single isomer, unassigned) [Example 33b], the EC50 in test [1] (setting [7]) is 0.0122 µM; in test [2] (Table 3), 0.0272 µM; in the test with SARS-CoV-2, 0.231 µM.
On to `CCOC(=O)[C@H](C)NP(=O)(OC[C@H]1O[C@@](C#N)(c2ccc3c(N)ncnn23)[C@H](OC(C)=O)[C@@H]1OC(C)=O)Oc1ccc(C23CC(C2)C3)cc1` (single isomer, unassigned) [Example 42a], for which the EC50 in test [1] (setting [5]) turned out to be 0.00956 µM; in test [2] (setting [8]), 0.0683 µM; in the test with SARS-CoV-2 it was 0.121 µM.
On to `CCOC(=O)[C@H](C)NP(=O)(OC[C@H]1O[C@@](C#N)(c2ccc3c(N)ncnn23)[C@H](OC(C)=O)[C@@H]1OC(C)=O)Oc1ccc(C23CC(C2)C3)cc1` (single isomer, unassigned) [Example 42b], for which the EC50 stood at 0.008 µM in test [1] (setting [7]), 0.0688 µM in test [2] (Table 3) and 0.0513 µM in the test on SARS-CoV-2.
As for `CCC(=O)O[C@H]1[C@@H](OC(=O)CC)[C@](C#N)(c2ccc3c(N)ncnn23)O[C@@H]1COP(=O)(N[C@@H](C)C(=O)OC1CC2(CCC2)C1)Oc1cccc2ccccc12` (single isomer, unassigned) [Example 87b], the EC50 in test [1] (setting [5]) worked out at 0.00736 µM; in test [3] (read-out: EC50 RSV HEP2 96, HEp-2 cells, RSV A2, MOI=4, 4 days, 96 well), 0.0083 µM; in test [2] (setting [8]), 0.0449 µM; in the test on SARS-CoV-2 it was 0.0163 µM.
As for `CCC(=O)O[C@H]1[C@@H](OC(=O)CC)[C@](C#N)(c2ccc3c(N)ncnn23)O[C@@H]1COP(=O)(N[C@@H](C)C(=O)OCC(CC)CC)Oc1ccc(C(C)(C)C)c2ccccc12` (single isomer, unassigned) [Example 172a], in test [4], the EC50 was 0.75 µM.
With `C[C@H](NP(=O)(OC[C@H]1O[C@@](C#N)(c2ccc3c(N)ncnn23)[C@H](O)[C@@H]1O)Oc1ccc(C(C)(C)C)cc1)C(=O)OC1CC(C)(C)C1` (stereo partly drawn) [Example 93, 3,3-dimethylcyclobutyl ((((2R,3S,4R,5R)-5-(4-aminopyrrolo[2,1-f][1,2,4]triazin-7-yl)-5-cyano-3,4-dihydroxytetrahydrofuran-2-yl)methoxy)(4-(tert-butyl)phenoxy)phosphoryl)-L-alaninate], the EC50 in test [1] (setting [5]) was 0.00443 µM; in test [2] (setting [8]), 0.0676 µM; in the test on SARS-CoV-2 (setting [6]), 0.123 µM.
The corresponding values for `CC(C)C(=O)O[C@H]1[C@@H](OC(=O)C(C)C)[C@](C#N)(c2ccc3c(N)ncnn23)O[C@@H]1COP(=O)(N[C@@H](C)C(=O)OCC1CC1)Oc1ccc(C(C)(C)C)cc1` (stereo partly drawn) [Example 104a, (2R,3R,4R,5R)-2-(4-aminopyrrolo[2,1-f][1,2,4]triazin-7-yl)-5-((((4-(tert-butyl)phenoxy)(((S)-1-(cyclopropylmethoxy)-1-oxopropan-2-yl)amino)phosphoryl)oxy)methyl)-2-cyanotetrahydrofuran-3,4-diyl bis(2-methylpropanoate)] are 0.0108 µM, 0.039 µM and 0.234 µM.
On to `CCC(C)(C)CCOC(=O)[C@H](C)NP(=O)(OC[C@H]1O[C@@](C#N)(c2ccc3c(N)ncnn23)[C@H](OC(C)=O)[C@@H]1OC(C)=O)Oc1ccccc1` (stereo partly drawn) [Example 106b, (2R,3R,4R,5R)-2-(4-aminopyrrolo[2,1-f][1,2,4]triazin-7-yl)-2-cyano-5-((((((S)-1-((3,3-dimethylpentyl)oxy)-1-oxopropan-2-yl)amino)(phenoxy)phosphoryl)oxy)methyl)tetrahydrofuran-3,4-diyl Diacetate], for which the figures for the EC50 (in test [1] (setting [5]); in test [2] (Table 3); in the test on SARS-CoV-2) were 0.0122 µM, 0.0342 µM and 0.0978 µM, respectively.
Regarding `COC(C)(C)COC(=O)[C@H](C)NP(=O)(OC[C@H]1O[C@@](C#N)(c2ccc3c(N)ncnn23)[C@H](OC(=O)C(C)C)[C@@H]1OC(=O)C(C)C)Oc1ccc(C(C)(C)C)cc1` (stereo partly drawn) [Example 116, (2R,3R,4R,5R)-2-(4-aminopyrrolo[2,1-f][1,2,4]triazin-7-yl)-5-((((4-(tert-butyl)phenoxy)(((S)-1-(2-methoxy-2-methylpropoxy)-1-oxopropan-2-yl)amino)phosphoryl)oxy)methyl)-2-cyanotetrahydrofuran-3,4-diyl bis(2-methylpropanoate)], the figures for the EC50 (in test [1] (setting [5]); in test [3] (setting [9]); in the test on SARS-CoV-2 (setting [6])) were 0.025 µM, 0.0112 µM and 0.056 µM, respectively.
The corresponding values for `CC(C)C(=O)O[C@H]1[C@@H](OC(=O)C(C)C)[C@](C#N)(c2ccc3c(N)ncnn23)O[C@@H]1COP(=O)(N[C@@H](C)C(=O)OCC1CCC1)Oc1ccccc1` (stereo partly drawn) [Example 117, (2R,3R,4R,5R)-2-(4-aminopyrrolo[2,1-f][1,2,4]triazin-7-yl)-2-cyano-5-((((((S)-1-(cyclobutylmethoxy)-1-oxopropan-2-yl)amino)(phenoxy)phosphoryl)oxy)methyl)tetrahydrofuran-3,4-diyl bis(2-methylpropanoate)] are 0.0221 µM, 0.011 µM and 0.192 µM.
With `CC(C)COC(=O)[C@H](C)NP(=O)(OC[C@H]1O[C@@](C#N)(c2ccc3c(N)ncnn23)[C@H](OC(=O)C(C)C)[C@@H]1OC(=O)C(C)C)Oc1ccc(C(C)(C)C)cc1` (stereo partly drawn) [Example 122, (2R,3R,4R,5R)-2-(4-aminopyrrolo[2,1-f][1,2,4]triazin-7-yl)-5-((((4-(tert-butyl)phenoxy)(((S)-1-isobutoxy-1-oxopropan-2-yl)amino)phosphoryl)oxy)methyl)-2-cyanotetrahydrofuran-3,4-diyl bis(2-methylpropanoate)], the results for the EC50 (in test [1] (setting [5]); in test [3] (setting [9]); with SARS-CoV-2 (setting [6])) were 0.00873 µM, 0.0164 µM and 0.167 µM, respectively.
For the compound `COC(C)(C)COC(=O)[C@H](C)NP(=O)(OC[C@H]1O[C@@](C#N)(c2ccc3c(N)ncnn23)[C@H](OC(=O)C(C)C)[C@@H]1OC(=O)C(C)C)Oc1cccc2ccccc12` (stereo partly drawn) [Example 133, (2R,3R,4R,5R)-2-(4-aminopyrrolo[2,1-f][1,2,4]triazin-7-yl)-2-cyano-5-((((((S)-1-(2-methoxy-2-methylpropoxy)-1-oxopropan-2-yl)amino)(naphthalen-1-yloxy)phosphoryl)oxy)methyl)tetrahydrofuran-3,4-diyl bis(2-methylpropanoate)], the half-maximal effective concentration (EC50) was determined as 0.0138 µM in test [1] (setting [5]), 0.0336 µM in test [2] (setting [8]) and 0.0369 µM in the test on SARS-CoV-2 (setting [6]).

The term EC50 denotes the concentration needed to bring the measured effect to its halfway point.
